According to Sander's compilation of Henry's law constants (doi:10.1021/je900711h):

Experiment: Henry solubility constant Hcp at 298.15 K (mol/(m3 Pa))
Conditions: reference: O’Farrell and Waghorne (2010)

Row | SMILES | Henry solubility constant Hcp
1 | C1COCOC1 [1,3-dioxane] | 1.8
2 | CCO [ethanol] | 2.2
3 | OCC(Cl)Cl [2,2-dichloroethanol] | 0.37
4 | OCC(F)F [2,2-difluoroethanol] | 0.92
5 | COCCOC [1,2-dimethoxyethane] | 2.1
6 | CCC(=O)CC [3-pentanone] | 0.21
7 | CC(=O)C(Cl)Cl [1,1-dichloro-2-propanone] | 0.33
8 | O=C1CCCC1 [cyclopentanone] | 2.8
9 | CC(C)=O [propanone] | 0.33
10 | CC(=O)CF [1-fluoro-2-propanone] | 0.46
